Test results as given in PubChem BioAssay (NCI).
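Cultured in 96-well plates, cells were exposed to test compound for 48 hours across five concentrations. The concentration for full growth arrest is given as TGI.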

What was measured:
Assay in all cases: DTP human tumour cell line panel, 48 h
[1] = test system: OVCAR-5 ovarian
[2] = test system: M14 melanoma
[3] = test system: CCRF-CEM leukemia
[4] = test system: ACHN renal
[5] = test system: HOP-62 NSCLC
[6] = test system: SF-295 CNS
[7] = test system: HCT-116 colon
[8] = test system: HOP-92 NSCLC
[9] = test system: A549 NSCLC
[10] = test system: SR leukemia
[11] = test system: SK-OV-3 ovarian
[12] = test system: SNB-75 CNS
[13] = test system: KM20L2 colon
[14] = test system: RPMI-8226 leukemia
[15] = test system: DMS 114 small cell lung
[16] = test system: TK-10 renal
[17] = test system: M19-MEL melanoma
[18] = test system: SF-268 CNS
[19] = test system: SNB-19 CNS
[20] = test system: NCI-H522 lung
[21] = test system: OVCAR-4 ovarian
[22] = test system: IGROV1 ovarian
[23] = test system: HCC-2998 colon
[24] = test system: XF 498 CNS
[25] = test system: RXF 393 renal
[26] = test system: NCI-H460 lung
[27] = test system: SN12C renal
[28] = test system: EKVX NSCLC
[29] = test system: MALME-3M melanoma
[30] = test system: OVCAR-8 ovarian
[31] = test system: SW-620 colon
[32] = test system: DLD-1 colon
[33] = test system: UACC-62 melanoma
[34] = test system: SK-MEL-2 melanoma
[35] = test system: SK-MEL-28 melanoma
[36] = test system: OVCAR-3 ovarian
[37] = test system: SK-MEL-5 melanoma
[38] = test system: SF-539 CNS
[39] = test system: NCI-H23 lung
[40] = test system: LXFL 529 NSCLC
[41] = test system: HL-60(TB) leukemia
[42] = test system: UACC-257 melanoma
[43] = test system: MOLT-4 leukemia
[44] = test system: HCT-15 colon
[45] = test system: 786-0 renal
[46] = test system: LOX IMVI melanoma
[47] = test system: NCI-H226 lung
[48] = test system: HOP-18 NSCLC
[49] = test system: K-562 leukemia
[50] = test system: U251 CNS
[51] = test system: HT29 colon
[52] = test system: KM12 colon
[53] = test system: UO-31 renal
[54] = test system: COLO 205 colon
[55] = test system: DMS 273 small cell lung
[56] = test system: CAKI-1 renal
[57] = test system: A498 renal
[58] = test system: SNB-78 CNS
[59] = test system: RXF-631 renal

With `Cc1ccc(S(=O)(=O)n2c(-c3ccccc3)c(-c3ccccc3)c3ccccc32)cc1` as the compound, how does the TGI [1] read?
The TGI was > 100 µM.

And the TGI [2]?
Its TGI is > 100 µM.

What about the TGI [3] of the same compound?
Its TGI is > 100 µM.

What about the TGI [4] of the same compound?
Its TGI is > 100 µM.

What about the TGI [5] of the same compound?
The TGI was > 100 µM.

What about the TGI [6] of the same compound?
Its TGI is > 100 µM.

And the TGI [7]?
The TGI was > 100 µM.

And the TGI [8]?
The TGI was > 100 µM.

And the TGI [9]?
The TGI was > 100 µM.

And the TGI [10]?
Its TGI is > 100 µM.

What about the TGI [11] of the same compound?
The TGI was > 100 µM.

What about the TGI [12] of the same compound?
Its TGI is > 100 µM.

And the TGI [13]?
The TGI was > 100 µM.

And the TGI [14]?
Its TGI is > 100 µM.

And the TGI [15]?
The TGI was > 100 µM.

What about the TGI [16] of the same compound?
Its TGI is > 100 µM.

And the TGI [17]?
The TGI was > 100 µM.

And the TGI [18]?
Its TGI is > 100 µM.

And the TGI [19]?
Its TGI is > 100 µM.

And the TGI [20]?
Its TGI is > 100 µM.

And the TGI [21]?
Its TGI is > 100 µM.

And the TGI [22]?
The TGI was > 100 µM.

What about the TGI [23] of the same compound?
The TGI was > 100 µM.

And the TGI [24]?
Its TGI is > 100 µM.

What about the TGI [25] of the same compound?
The TGI was > 100 µM.

And the TGI [26]?
The TGI was > 100 µM.

And the TGI [27]?
Its TGI is > 100 µM.

And the TGI [28]?
The TGI was > 100 µM.

What about the TGI [29] of the same compound?
The TGI was > 100 µM.

And the TGI [30]?
Its TGI is > 100 µM.

And the TGI [31]?
Its TGI is > 100 µM.

What about the TGI [32] of the same compound?
Its TGI is > 100 µM.

And the TGI [33]?
Its TGI is > 100 µM.

What about the TGI [34] of the same compound?
The TGI was > 100 µM.

What about the TGI [35] of the same compound?
Its TGI is > 100 µM.

And the TGI [36]?
The TGI was > 100 µM.

What about the TGI [37] of the same compound?
Its TGI is > 100 µM.

What about the TGI [38] of the same compound?
The TGI was > 100 µM.

And the TGI [39]?
Its TGI is > 100 µM.

What about the TGI [40] of the same compound?
Its TGI is > 100 µM.

What about the TGI [41] of the same compound?
The TGI was > 100 µM.

And the TGI [42]?
Its TGI is > 100 µM.

What about the TGI [43] of the same compound?
The TGI was > 100 µM.

And the TGI [44]?
Its TGI is > 100 µM.

And the TGI [45]?
The TGI was > 100 µM.

And the TGI [46]?
Its TGI is > 100 µM.

And the TGI [47]?
Its TGI is > 100 µM.

What about the TGI [48] of the same compound?
Its TGI is > 100 µM.

And the TGI [49]?
Its TGI is > 100 µM.

And the TGI [50]?
The TGI was > 100 µM.

What about the TGI [51] of the same compound?
The TGI was > 100 µM.

What about the TGI [52] of the same compound?
Its TGI is > 100 µM.

And the TGI [53]?
Its TGI is > 100 µM.

And the TGI [54]?
Its TGI is > 100 µM.

And the TGI [55]?
Its TGI is > 100 µM.

How did the TGI [1] turn out when `COC(=O)c1cccc2cccc(C(=O)Nc3ccc(C)cc3C)c12` was run?
The TGI was > 100 µM.

And the TGI [2]?
The TGI was > 100 µM.

And the TGI [3]?
The TGI was > 100 µM.

And the TGI [4]?
The TGI was > 100 µM.

And the TGI [5]?
Its TGI is > 100 µM.

And the TGI [6]?
Its TGI is > 100 µM.

What about the TGI [56] of the same compound?
The TGI was > 100 µM.

And the TGI [7]?
Its TGI is > 100 µM.

What about the TGI [8] of the same compound?
Its TGI is > 100 µM.

What about the TGI [9] of the same compound?
The TGI was > 100 µM.

What about the TGI [10] of the same compound?
Its TGI is > 100 µM.

And the TGI [11]?
Its TGI is > 100 µM.

What about the TGI [12] of the same compound?
Its TGI is > 100 µM.

And the TGI [13]?
Its TGI is > 100 µM.

What about the TGI [14] of the same compound?
The TGI was > 100 µM.

And the TGI [15]?
Its TGI is > 100 µM.

What about the TGI [16] of the same compound?
Its TGI is > 100 µM.

What about the TGI [17] of the same compound?
The TGI was > 100 µM.

What about the TGI [18] of the same compound?
The TGI was > 100 µM.

What about the TGI [19] of the same compound?
The TGI was > 100 µM.

What about the TGI [20] of the same compound?
The TGI was > 100 µM.

And the TGI [21]?
The TGI was > 100 µM.

What about the TGI [22] of the same compound?
The TGI was > 100 µM.

What about the TGI [23] of the same compound?
The TGI was > 100 µM.

What about the TGI [24] of the same compound?
The TGI was > 100 µM.

And the TGI [57]?
Its TGI is > 100 µM.

What about the TGI [25] of the same compound?
Its TGI is > 100 µM.

And the TGI [26]?
Its TGI is > 100 µM.

What about the TGI [27] of the same compound?
Its TGI is > 100 µM.

What about the TGI [28] of the same compound?
Its TGI is > 100 µM.

What about the TGI [29] of the same compound?
Its TGI is > 100 µM.

And the TGI [30]?
Its TGI is > 100 µM.

And the TGI [31]?
Its TGI is > 100 µM.

What about the TGI [32] of the same compound?
The TGI was > 100 µM.

What about the TGI [33] of the same compound?
Its TGI is > 100 µM.

What about the TGI [58] of the same compound?
The TGI was > 100 µM.

And the TGI [34]?
Its TGI is > 100 µM.

And the TGI [35]?
Its TGI is > 100 µM.

What about the TGI [36] of the same compound?
The TGI was > 100 µM.

And the TGI [37]?
Its TGI is > 100 µM.

And the TGI [38]?
Its TGI is > 100 µM.

And the TGI [39]?
The TGI was > 100 µM.

What about the TGI [59] of the same compound?
The TGI was > 100 µM.

What about the TGI [40] of the same compound?
Its TGI is > 100 µM.

And the TGI [41]?
Its TGI is 35 µM.

What about the TGI [42] of the same compound?
Its TGI is > 100 µM.

What about the TGI [43] of the same compound?
Its TGI is > 100 µM.

And the TGI [44]?
The TGI was > 100 µM.

And the TGI [45]?
Its TGI is > 100 µM.

And the TGI [46]?
The TGI was > 100 µM.

And the TGI [47]?
The TGI was > 100 µM.

What about the TGI [48] of the same compound?
Its TGI is > 100 µM.

And the TGI [49]?
The TGI was > 100 µM.

What about the TGI [50] of the same compound?
The TGI was > 100 µM.

And the TGI [51]?
Its TGI is > 100 µM.

And the TGI [52]?
The TGI was > 100 µM.

What about the TGI [53] of the same compound?
The TGI was > 100 µM.

What about the TGI [54] of the same compound?
The TGI was > 100 µM.

And the TGI [55]?
The TGI was > 100 µM.

Which results are given for `C=CCCCCCCCCC(=O)NS(=O)(=O)c1ccccc1`?
TGI [1]: > 100 µM; TGI [2]: > 100 µM; TGI [4]: > 100 µM; TGI [5]: > 100 µM; TGI [6]: > 100 µM; TGI [56]: > 100 µM; TGI [7]: > 100 µM; TGI [8]: > 100 µM; TGI [9]: > 100 µM; TGI [11]: > 100 µM; TGI [12]: > 100 µM; TGI [13]: > 100 µM; TGI [14]: > 100 µM; TGI [15]: > 100 µM; TGI [16]: > 100 µM; TGI [17]: > 100 µM; TGI [18]: > 100 µM; TGI [19]: > 100 µM; TGI [20]: > 100 µM; TGI [21]: > 100 µM; TGI [22]: > 100 µM; TGI [23]: > 100 µM; TGI [24]: > 100 µM; TGI [57]: > 100 µM; TGI [25]: > 100 µM; TGI [26]: > 100 µM; TGI [27]: > 100 µM; TGI [28]: > 100 µM; TGI [29]: > 100 µM; TGI [30]: > 100 µM; TGI [31]: > 100 µM; TGI [32]: > 100 µM; TGI [33]: > 100 µM; TGI [58]: > 100 µM; TGI [34]: > 100 µM; TGI [35]: > 100 µM; TGI [36]: > 100 µM; TGI [38]: > 100 µM; TGI [39]: > 100 µM; TGI [59]: > 100 µM; TGI [40]: > 100 µM; TGI [41]: > 100 µM; TGI [42]: > 100 µM; TGI [43]: > 100 µM; TGI [45]: > 100 µM; TGI [46]: > 100 µM; TGI [47]: > 100 µM; TGI [48]: > 100 µM; TGI [49]: > 100 µM; TGI [50]: > 100 µM; TGI [51]: > 100 µM; TGI [52]: > 100 µM; TGI [53]: > 100 µM; TGI [54]: > 100 µM; TGI [55]: > 100 µM
